According to patent US20140364431A1, “Quinoline and cinnoline derivatives and their applications” (Shenyang Pharmaceutical University, priority 2011, published 2014):
Values after ≈ are worked out from the molar mass of the structure shown.

Legend:
[1] = test system: HT-29 (colon cancer cell); test: In vitro anti-tumor cellular activity (MTT), HT-29; format: cell-based, human; settings: MTT, 72 hours, HT-29
[2] = test system: SMMC-7721 (hepatoma cell); test: In vitro anti-tumor cellular activity (MTT), SMMC-7721; format: cell-based, human; settings: MTT, 72 hours, SMMC-7721
[3] = test system: MKN-45 (human gastric carcinoma cell); test: In vitro anti-tumor cellular activity (MTT), MKN-45; format: cell-based; settings: MTT, 72 hours, MKN-45
[4] = test system: H460 (human lung cancer cell); test: In vitro anti-tumor cellular activity (MTT), H460; format: cell-based; settings: MTT, 72 hours, H460
[5] = test system: U87MG (Human malignant glioblastoma cells); test: In vitro anti-tumor cellular activity (MTT), U87MG; format: cell-based; settings: MTT, 72 hours, U87MG

COc1cc2c(Oc3ccc(NC(=O)c4nn(-c5cccc(F)c5)c5ccccc5c4=O)cc3F)cnnc2cc1OCCCN1CCCCC1 [Example 64, N-(3-fluoro-4-((6-methoxy-7-(3-(piperidin-1-yl)propoxy)cinnolin-4-yl)oxy)phenyl)-1-(3-fluorophenyl)-4-oxo-1,4-dihydrocinnoline-3-carboxamide]
IC50 ([1]; Homo sapiens, read-out: HT-29 IC50): 3.2 µg/mL (≈ 4.62 µM)
IC50 ([2]; Homo sapiens, read-out: SMMC-7721 IC50): 1.9 µg/mL (≈ 2.74 µM)
IC50 ([3]; Homo sapiens, read-out: MKN-45 IC50): 3.3 µg/mL (≈ 4.76 µM)
IC50 ([4]; Homo sapiens, NCI-H460, read-out: H460 IC50): 1.8 µg/mL (≈ 2.6 µM)
IC50 ([5]; Homo sapiens, U-87 MG, read-out: U87MG IC50): 2.7 µg/mL (≈ 3.9 µM)

N-(3-fluoro-4-((6-methoxy-7-(3-(4-methylpiperidin-1-yl)propoxy)quinolin-4-yl)oxy)phenyl)-1-(2-fluorophenyl)-4-oxo-1,4-dihydrocinnoline-3-carboxamide [Example 14]
HT-29 IC50 [1]: 0.31 µg/mL
SMMC-7721 IC50 [2]: 1.1 µg/mL
MKN-45 IC50 [3]: 0.45 µg/mL
H460 IC50 [4]: 0.47 µg/mL
U87MG IC50 [5]: 0.15 µg/mL

N-(3-fluoro-4-((6-methoxy-7-(3-(4-methylpiperidin-1-yl)propoxy)quinolin-4-yl)oxy)phenyl)-1-(4-fluorophenyl)-4-oxo-1,4-dihydrocinnoline-3-carboxamide [Example 13]
HT-29 IC50 [1]: 0.18 µg/mL
SMMC-7721 IC50 [2]: 0.67 µg/mL
MKN-45 IC50 [3]: 0.23 µg/mL
H460 IC50 [4]: 0.081 µg/mL
U87MG IC50 [5]: 0.45 µg/mL

N-(3-fluoro-4-((6-methoxy-7-(3-(morpholin-4-yl)propoxy)quinolin-4-yl)oxy)phenyl)-1-(2-f luorophenyl)-4-oxo-1,4-dihydrocinnoline-3-carboxamide [Example 45]
HT-29 IC50 [1]: 0.87 µg/mL
SMMC-7721 IC50 [2]: 2.3 µg/mL
MKN-45 IC50 [3]: 1.6 µg/mL
H460 IC50 [4]: 1 µg/mL
U87MG IC50 [5]: 2.1 µg/mL

N-(3-fluoro-4-((6-methoxy-7-(3-(piperidin-1-yl)propoxy)quinolin-4-yl)oxy)phenyl)-1-(2-(tr ifluoromethyl)phenyl)-4-oxo-1,4-dihydrocinnoline-3-carboxamide dihydrochloride [Example 5]
HT-29 IC50 [1]: 0.42 µg/mL
SMMC-7721 IC50 [2]: 0.25 µg/mL
MKN-45 IC50 [3]: 0.2 µg/mL
H460 IC50 [4]: 0.77 µg/mL
U87MG IC50 [5]: 1.2 µg/mL

N-(3-fluoro-4-((6-methoxy-7-(3-(piperidin-1-yl)propoxy)quinolin-4-yl)oxy)phenyl)-1-(2-ch lorophenyl)-4-oxo-1,4-dihydrocinnoline-3-carboxamide dihydrochloride [Example 2]
HT-29 IC50 [1]: 0.19 µg/mL
SMMC-7721 IC50 [2]: 0.3 µg/mL
MKN-45 IC50 [3]: 0.007 µg/mL
H460 IC50 [4]: 0.052 µg/mL
U87MG IC50 [5]: 0.35 µg/mL

N-(3-fluoro-4-((6-methoxy-7-(3-(pyrrolidin-1-yl)propoxy)quinolin-4-yl)oxy)phenyl)-1-(3,4-difluorophenyl)-4-oxo-1,4-dihydrocinnoline-3-carboxamide [Example 12]
HT-29 IC50 [1]: 0.41 µg/mL
SMMC-7721 IC50 [2]: 0.67 µg/mL
MKN-45 IC50 [3]: 1.2 µg/mL
H460 IC50 [4]: 0.91 µg/mL
U87MG IC50 [5]: 0.55 µg/mL
